PMC4663524 (Toxins, 2015)
Values joined by “and” are separate entries in the source; they are usually repeats but may differ in a detail not shown here. Identical values can stand only once.

How the values were obtained:
[1] = cited from earlier work
[2] = Clinical symptoms after intravenous or oral bolus; format: in vivo, pigs; conditions: for clinical symptoms: pigs, after single bolus
Method: (§1) The experiment was designed as a kinetic study. […] Due to the instability of DONS 2 and 3 upon evaporation to dryness, the standards of the three DONS were dissolved in water acidified with 2% formic acid.
(§2) A total of 16 castrated male pigs, crossbred German Landrace × Pietrain, were used for these kinetic experiments. After an adaption phase to the balance cages, eight animals underwent surgery per trial. Animals were equipped with two permanent intravenous catheters in the external vena jugularis for serial blood sampling. After surgery the animals were allowed to recover for one day. On test day, zero blood samples had to be collected from pigs before exposure. Zero blood samples served as reference values to which the data after oral or intravenous bolus related. Serial blood samples (10 mL) were drawn prior to feeding and after 15, 30, 60 and 90 min and then after two, three, four, six, eight, 10, 12, and 24 h for pigs receiving compounds by oral administration. For pigs dosed intravenously, shorter time intervals were chosen at the beginning: five, 10, 15, 20, 30, 45 min and then following the same intervals as for oral exposure. For a clear classification in result Table 1, Table 2, Table 3, Table 4, Table 5 and Table 6, we differentiated between IV- (intravenous bolus) and O- (oral bolus) animals. Due to repeated use of individuals it was numbered continuously.

[3] = cited from earlier work; remark: listed apart in the source
[4] = Plasma toxicokinetics after a single intravenous bolus (DONiv, DONSiv); format: in vivo, pigs; conditions: for Vd(area), apparent volume of distribution: DONS 1 or DONS 2, DONSiv 50 µg/kg BW; for peak concentration in plasma (mean of A + B): after DONSiv 50 µg/kg BW; for stability in plasma: after DONSiv injection
Method: as §1, §2
(§3) Two different injection solutions were prepared for IV administration. […] After weighing, an individual amount was drawn up into syringes with a dose of 50 µg/kg BW. The concentrations of DONS 1, 2, and 3 in DONS standard solution were 3240, 1720, and 7300 µg/mL, respectively. […] Thereafter, the standard was mixed with physiological saline to prepare a 250 µg/mL DONS stock solution. The further handling was similar to DON.
(§4) For quantitative determination of DONS 1, 2, and 3 in plasma, an HPLC-MS/MS analysis was conducted on an Agilent 1200 (Agilent Technologies, Böblingen, Germany) series HPLC system coupled to a 4000 QTrap mass spectrometer (AB Sciex, Foster City, CA, USA). […] The retention times of DONS 1, 2, and 3 were 2.31, 4.71, and 5.88 min, respectively. Tandem mass spectrometric detection was carried out in negative ion mode after electrospray ionization at 600 °C (ion spray voltage: −4500 V). The method was validated in-house for all analytes based on the guidelines of the FDA and European community. Calibration graphs (0.3–480 ng/mL) were prepared and good linearity was achieved (r ≥ 0.99).
The LOD amounted to 0.22 ng/mL and the LOQ was 0.72 ng/mL.
A + B is the initial concentration at t = 0, i.e., C0, α, and β are the rate constant of distribution or elimination phase, respectively, and t the time (h). The non-linear curve fitting module of the Statistica for the Windows^TM operating system (StatSoft Inc., Tulsa, OK, USA) was used to fit the data to Equations (1) and (2).
Further kinetic parameters were derived from the fitted functions as also described by Prelusky et al.. The half-life was calculated as t1/2α=ln (2)/ka or α for absorption or distribution phase and t1/2β=ln(2)/kel or β for the elimination phase, respectively. […] The apparent volume of distribution by area (Vd(area)) following intravenous application was calculated by Vd(area) = D/AUC⋅t1/2β/ln(2) as an indicator of Vd corresponding to the elimination phase and thus covering large parts of the kinetics.
In addition, in order to evaluate the decomposition of the IV administered DONS mixture the DON-AUC was divided by the sum of individually estimated AUCs for DONS 1 and DONS 2 and declared as F. In each case, the AUCs were corrected for the administered dose.

[5] = DONS/DON pattern in standard solution, bolus solution and pig plasma; format: physicochemical; conditions: for Proportion in bolus solution: DONS standard mixed with physiological saline for IV bolus (pH 2.66); for Proportion in standard solution: DONS standard solution (pH 1.56); for Proportion in pig plasma: after IV 50 µg DONS mixture/kg BW
Method: as §3
Due to known dependency of DONS stability on pH value, we compared the pH of standard and bolus solutions. The determination was carried out with a pH meter (WTW GmbH, Weilheim, Germany). Both an addition of physiological saline and distilled water caused changes in pH value, and so shifts in DONS ratio took place.
as §4

[6] = cited from earlier work; for pH range of stability: DONS 2: for 24 h
[7] = DONS mixture added to uncontaminated diet
[8] = DON in plasma after DONSiv 50 µg/kg BW, individual pigs IV6-11
[9] = DON in plasma after DONSiv 50 µg/kg BW, mean, n=6
[10] = DON in plasma, IV 50 µg DON/kg BW, individual pigs IV 1-5, listed as DONiv
[11] = DON in plasma, IV 50 µg DON/kg BW, mean, n=5
[12] = DONS 1 or DONS 2 in plasma (DON equivalents), DONSiv 50 µg/kg BW, individual pigs IV6-11
[13] = DONS 1 or DONS 2 in plasma (DON equivalents), DONSiv 50 µg/kg BW, mean, n=6
[14] = DONS 1 or DONS 2 in plasma (DON equivalents), IV 50 µg DONS mixture/kg BW (DONSiv), individual pigs IV6-11
[15] = DONS 1 or DONS 2 in plasma, DONSiv 50 µg/kg BW, individual pigs IV6-11
[16] = DONS 1 or DONS 2 in plasma, DONSiv 50 µg/kg BW, mean, n=6

CC1=C[C@H]2O[C@@H]3[C@H](O)C[C@](C)([C@@]2(CO)[C@H](O)C1=O)[C@]31CO1 [DON, deoxynivalenol]
share of orally-administered DON absorbed in the stomach and the first third of the small intestine [1]: ~90%
number of retching and vomiting episodes ([2]; IV 50 µg DON/kg BW): between three and nine times
time of retching and vomiting after bolus ([2]; IV 50 µg DON/kg BW): 6 to 16 min
clinical symptoms [2]: sickness and emesis within minutes
clinical symptoms ([2]; listed as DONiv): retching and vomiting
initial concentration A + B of DON at t = 0 ([3]; IV DON): 46.2–139.9 ng/mL plasma
maximum concentration cmax ([3]; oral, DON in wheat): 15.2 ng/mL
tmax ([3]; oral, DON in wheat): 1.65 h
total DON bioavailability ([3]; single oral dose, DON-contaminated wheat): 91.5% ± 27.4%
mean maximum concentration of DON in plasma (A + B) ([4]; DON after DONSiv 50 µg/kg BW): 17.33 ng/mL
B [4, 8]: 7.13 ng/mL and 5.49 ng/mL and 5.08 ng/mL and 2.91 ng/mL and 6.48 ng/mL and 3.17 ng/mL
F, release rate of DON from DONS [4, 8]: 12.5% and 17.3% (2×) and 18.2% and 23.8% and 15.3%
α, rate constant of distribution phase [4, 8]: 5.02 h⁻¹ and 3.23 h⁻¹ and 4.83 h⁻¹ and 1.72 h⁻¹ and 3.99 h⁻¹ and 2.25 h⁻¹
β, rate constant of elimination phase [4, 8]: 0.32 h⁻¹ and 0.22 h⁻¹ and 0.34 h⁻¹ and 0.17 h⁻¹ and 0.29 h⁻¹ and 0.27 h⁻¹
A [4, 9]: 12.29 ng/mL
B [4, 9]: 5.04 ng/mL
F, release rate of DON from DONS [4, 9]: 17.37%
α, rate constant of distribution phase [4, 9]: 3.51 h⁻¹
β, rate constant of elimination phase [4, 9]: 0.27 h⁻¹
A ([4]; DON in plasma after IV 50 µg DONS mixture/kg BW (DONSiv), individual pigs IV6-11): 12.44 ng/mL and 8.40 ng/mL and 17.13 ng/mL and 12.74 ng/mL and 12.50 ng/mL and 10.51 ng/mL
A ([4]; DON in plasma, IV 50 µg DON/kg BW, two-compartment fit, individual pigs IV 1-5, listed as DONiv): 136.4 ng/mL and 624.9 ng/mL and 121.9 ng/mL and 56.2 ng/mL and 74.5 ng/mL
B [4, 10]: 96.5 ng/mL and 83.6 ng/mL and 73.5 ng/mL and 64.5 ng/mL and 84.1 ng/mL
α, rate constant of distribution phase [4, 10]: 7.35 h⁻¹ and 18.74 h⁻¹ and 13.71 h⁻¹ and 3.88 h⁻¹ and 6.29 h⁻¹
β, rate constant of elimination phase [4, 10]: 0.36 h⁻¹ and 0.33 h⁻¹ and 0.35 h⁻¹ and 0.34 h⁻¹ and 0.38 h⁻¹
A [4, 11]: 202.8 ng/mL
B [4, 11]: 80.5 ng/mL
α, rate constant of distribution phase [4, 11]: 9.99 h⁻¹
β, rate constant of elimination phase [4, 11]: 0.35 h⁻¹
Proportion in bolus solution [5]: 19.26%
Proportion in standard solution [5]: 0%
Proportion in pig plasma [5]: 10.45%

CC12CC3(O)[C@@H]4O[C@H]([C@H]1S(=O)(=O)O)[C@](CO)([C@H](O)C2=O)[C@@]3(C)C[C@H]4O [DONS 1]
pH range of stability [6]: 2–10
Vd(area), apparent volume of distribution ([4]; individual pigs IV6-11): 0.35 L/kg and 0.48 L/kg and 0.51 L/kg and 0.37 L/kg and 0.44 L/kg and 0.42 L/kg
Vd(area), apparent volume of distribution ([4]; mean, n=6): 0.4 L/kg
AUC, area under the curve [4, 12]: 179.7 ng·h/mL and 143.2 ng·h/mL and 167.6 ng·h/mL and 187.8 ng·h/mL and 163.4 ng·h/mL and 167.8 ng·h/mL
B [4, 12]: 74.30 ng/mL and 55.10 ng/mL and 61.46 ng/mL and 75.58 ng/mL and 67.17 ng/mL and 69.69 ng/mL
A [4, 13]: 104.2 ng/mL
AUC, area under the curve [4, 13]: 168.2 ng·h/mL
B [4, 13]: 67.2 ng/mL
A [4, 14]: 86.78 ng/mL and 61.27 ng/mL and 60.09 ng/mL and 257.42 ng/mL and 79.19 ng/mL and 80.20 ng/mL
t1/2β, half-life of elimination [4, 15]: 0.87 h and 0.96 h (2×) and 1.18 h and 0.99 h and 0.98 h
α, rate constant of distribution phase [4, 15]: 11.35 h⁻¹ and 13.56 h⁻¹ and 4.94 h⁻¹ and 20.41 h⁻¹ and 4.55 h⁻¹ and 10.96 h⁻¹
β, rate constant of elimination phase [4, 15]: 0.80 1/h and 0.72 1/h (2×) and 0.59 1/h and 0.70 1/h and 0.71 1/h
α, rate constant of distribution phase [4, 16]: 11.0 h⁻¹
β, rate constant of elimination phase [4, 16]: 0.7 h⁻¹
peak concentration in plasma (mean of A + B) [4]: 171.4 ng/mL
stability in plasma [4]: stable in plasma
detection in plasma after oral DONSpo [7]: rarely, traces of DONS 1 and 2 (<LOQ)
Proportion in bolus solution [5]: 69.75%
Proportion in standard solution [5]: 26.43%
Proportion in pig plasma [5]: 59.49%

C[C@H]1[C@H](S(=O)(=O)O)[C@H]2O[C@@H]3[C@H](O)C[C@](C)([C@]24COC1(O)[C@H]4O)[C@]31CO1 [DONS 2]
pH range of stability [6]: 2–7
pH values at which back-formation or degradation to DON is observed [6]: 8–10
Vd(area), apparent volume of distribution ([4]; individual pigs IV6-11): 0.68 L/kg and 0.96 L/kg and 0.67 L/kg and 1.08 L/kg and 0.53 L/kg and 0.69 L/kg
Vd(area), apparent volume of distribution ([4]; mean, n=6): 0.8 L/kg
AUC, area under the curve [4, 12]: 81.5 ng·h/mL and 74.6 ng·h/mL and 80.1 ng·h/mL and 78.1 ng·h/mL and 105.8 ng·h/mL and 94.6 ng·h/mL
B [4, 12]: 32.87 ng/mL and 20.05 ng/mL and 29.84 ng/mL and 19.94 ng/mL and 34.75 ng/mL and 25.99 ng/mL
A [4, 13]: 52.7 ng/mL
AUC, area under the curve [4, 13]: 85.8 ng·h/mL
B [4, 13]: 27.2 ng/mL
A [4, 14]: 46.01 ng/mL and 23.41 ng/mL and 43.30 ng/mL and 34.43 ng/mL and 126.49 ng/mL and 42.60 ng/mL
t1/2β, half-life of elimination [4, 15]: 0.77 h (2×) and 0.99 h and 0.74 h and 1.17 h and 0.91 h
α, rate constant of distribution phase [4, 15]: 12.01 h⁻¹ and 4.93 h⁻¹ and 9.99 h⁻¹ and 4.03 h⁻¹ and 17.39 h⁻¹ and 4.41 h⁻¹
β, rate constant of elimination phase [4, 15]: 0.90 1/h (2×) and 0.70 1/h and 0.93 1/h and 0.59 1/h and 0.76 1/h
α, rate constant of distribution phase [4, 16]: 8.8 h⁻¹
β, rate constant of elimination phase [4, 16]: 0.8 h⁻¹
peak concentration in plasma (mean of A + B) [4]: 79.9 ng/mL
stability in plasma [4]: stable in plasma
detection in plasma after oral DONSpo [7]: rarely, traces of DONS 1 and 2 (<LOQ)
Proportion in bolus solution [5]: 10.69%
Proportion in standard solution [5]: 14.03%
Proportion in pig plasma [5]: 28.25%
